Data published in patent publication US12618082B2, “Engineered muscle targeting compositions” (priority 2020, dated 2026).
“Also recorded” adds a separate entry of the source.

Legend:
[1] = molecular target: T1, αV-containing integrin heterodimers (Homo sapiens, UniProt P06756); test: Small molecule pan-αV integrin antagonist inhibition of transduction, human primary myotubes; format: cell-based; conditions: increasing concentrations of the antagonist; capsid named in the value
T1 construct: endogenous in cells; host or cells: human primary skeletal muscle myotubes differentiated from Lonza myoblasts
T1 sequence (P06756 31-889 limits assumed): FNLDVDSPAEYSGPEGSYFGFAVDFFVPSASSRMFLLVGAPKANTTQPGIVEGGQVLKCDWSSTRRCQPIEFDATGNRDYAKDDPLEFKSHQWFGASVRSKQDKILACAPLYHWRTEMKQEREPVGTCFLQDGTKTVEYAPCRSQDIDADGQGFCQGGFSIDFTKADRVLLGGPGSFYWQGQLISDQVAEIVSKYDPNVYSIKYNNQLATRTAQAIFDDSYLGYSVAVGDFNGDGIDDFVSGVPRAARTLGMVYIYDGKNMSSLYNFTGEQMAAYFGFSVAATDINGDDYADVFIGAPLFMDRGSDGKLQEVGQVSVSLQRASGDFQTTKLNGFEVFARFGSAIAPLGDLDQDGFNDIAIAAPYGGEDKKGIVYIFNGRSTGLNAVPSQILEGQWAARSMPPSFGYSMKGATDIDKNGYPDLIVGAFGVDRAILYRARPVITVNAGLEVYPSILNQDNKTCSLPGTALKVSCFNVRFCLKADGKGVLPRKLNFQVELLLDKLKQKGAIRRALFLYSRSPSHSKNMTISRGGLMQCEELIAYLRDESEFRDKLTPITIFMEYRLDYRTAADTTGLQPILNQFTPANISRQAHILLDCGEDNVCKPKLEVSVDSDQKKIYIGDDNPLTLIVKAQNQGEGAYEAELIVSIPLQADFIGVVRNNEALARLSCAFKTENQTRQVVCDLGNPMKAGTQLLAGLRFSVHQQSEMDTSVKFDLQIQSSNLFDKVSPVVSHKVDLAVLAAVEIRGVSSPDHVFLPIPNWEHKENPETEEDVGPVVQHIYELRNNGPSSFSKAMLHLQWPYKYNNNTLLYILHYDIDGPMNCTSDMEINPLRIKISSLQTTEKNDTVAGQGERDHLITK
T1 sequence (P06756 891-1048 limits assumed): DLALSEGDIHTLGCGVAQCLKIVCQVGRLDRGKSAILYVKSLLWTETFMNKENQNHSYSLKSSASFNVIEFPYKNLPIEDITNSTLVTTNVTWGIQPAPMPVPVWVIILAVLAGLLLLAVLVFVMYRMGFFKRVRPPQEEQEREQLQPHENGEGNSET
Description: (§1) Pan-alpha V integrin antagonists CWHM-12 and GLPG0187 (MedChem Express), or anti-αVβ6 antibody (ab77906, abcam) were diluted in DMEM containing 2% horse serum at the specified concentrations. Media was removed from differentiated myotubes and replaced with the diluted inhibitors, after which the myotubes were incubated on ice for 30 minutes to inhibit endocytosis. Following this incubation, AAV9-, MyoAAV-, or EMyoAAV-CK8-Nluc were added to the cells at 5E+3 vg/cell and the plates were transferred back to the tissue culture incubators. 24 hours after transduction, luciferase intensity was measured with the Nano-Glo Luciferase Assay (Promega).

[2] = molecular target: T2, αV-containing integrin heterodimers (Mus musculus, UniProt P43406); test: Small molecule pan-αV integrin antagonist inhibition of transduction, mouse primary myotubes; format: cell-based; conditions: increasing concentrations of the antagonist; capsid named in the value
T2 construct: endogenous in cells; host or cells: mouse primary myotubes differentiated from C57BL/6J satellite cells
T2 sequence (P43406 31-1044): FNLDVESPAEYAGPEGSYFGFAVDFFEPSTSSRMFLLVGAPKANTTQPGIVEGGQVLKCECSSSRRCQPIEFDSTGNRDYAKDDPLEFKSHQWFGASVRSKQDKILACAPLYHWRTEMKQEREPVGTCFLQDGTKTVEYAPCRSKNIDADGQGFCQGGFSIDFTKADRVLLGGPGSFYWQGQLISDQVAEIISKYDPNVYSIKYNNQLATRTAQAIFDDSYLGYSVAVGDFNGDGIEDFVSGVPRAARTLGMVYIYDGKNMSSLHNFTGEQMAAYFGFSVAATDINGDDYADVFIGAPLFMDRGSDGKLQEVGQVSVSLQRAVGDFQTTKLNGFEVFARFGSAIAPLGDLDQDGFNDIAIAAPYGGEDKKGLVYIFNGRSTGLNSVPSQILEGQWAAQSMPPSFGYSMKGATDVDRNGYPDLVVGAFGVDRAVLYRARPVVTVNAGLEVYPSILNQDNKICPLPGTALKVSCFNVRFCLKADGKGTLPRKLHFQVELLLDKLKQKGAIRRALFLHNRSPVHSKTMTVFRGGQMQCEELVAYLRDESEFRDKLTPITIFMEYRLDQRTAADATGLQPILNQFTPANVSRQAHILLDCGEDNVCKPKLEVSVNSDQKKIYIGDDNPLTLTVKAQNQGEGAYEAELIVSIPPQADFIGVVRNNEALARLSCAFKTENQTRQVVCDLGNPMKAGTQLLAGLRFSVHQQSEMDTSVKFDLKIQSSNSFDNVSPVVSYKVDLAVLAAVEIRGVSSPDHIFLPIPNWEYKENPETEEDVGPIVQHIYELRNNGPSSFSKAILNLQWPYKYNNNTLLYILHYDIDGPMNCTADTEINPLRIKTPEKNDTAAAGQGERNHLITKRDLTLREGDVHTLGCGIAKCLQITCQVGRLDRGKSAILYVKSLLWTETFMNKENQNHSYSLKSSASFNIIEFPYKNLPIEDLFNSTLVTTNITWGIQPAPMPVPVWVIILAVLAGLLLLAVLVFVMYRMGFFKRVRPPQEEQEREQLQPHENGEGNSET
Description: as §1

| SMILES | effect of the pan-αV integrin antagonist on AAV transduction efficiency, human primary myotubes [1] | effect of the pan-αV integrin antagonist on AAV transduction efficiency, mouse primary myotubes [2] |
| --- | --- | --- |
| COc1ccc(S(=O)(=O)N[C@@H](CNc2nc(C)nc(N3CCC(c4ccc5c(n4)NCCC5)CC3)c2C)C(=O)O)cc1 [GLPG-0187] | dose-dependent decrease in the transduction efficiency of EMyoAAV; also recorded: impeded MyoAAV 1A transduction in a dose-dependent manner; also recorded: dose-dependent decrease in the transduction efficiency of MyoAAV 2A; also recorded: dose-dependent decrease in transduction for all the 4 variants | impeded MyoAAV 1A transduction in a dose-dependent manner |
| CC(C)(C)c1cc(Br)cc([C@H](CC(=O)O)NC(=O)CNC(=O)c2cc(O)cc(NC3=NCC(O)CN3)c2)c1 (stereo partly shown) [CWHM-12] | impeded MyoAAV 1A transduction in a dose-dependent manner | impeded MyoAAV 1A transduction in a dose-dependent manner |
